Data from patent publication US5612480A, “2-chloro and 2-bromo derivatives of 1,5-iminosugars” (priority 1995, dated 1997).
Read-outs that look alike come from different tables or passages of the source.

Tests used:
β-Glucosidase (almond) [1] = assay: Beta-glucosidase (almond) inhibitor assay, pH 4.8; type: biochemical
Description: (§1) Yeast alpha-glucosidase and almond beta-glucosidase activities were measured by a modification of the method of Evans, et al., Phytochemistry 22, 768-770 (1983). The modifications included (1) assay of activities at pH 7.4 in HEPES (N-2-hydroxyethylpiperazine-N'-2-ethanesulfonic acid) buffer, 2) measurement in 96 well microtiter plates and (3) inclusion of 10% DMSO in control and test samples.
(§2) The release of p-nitrophenol from the substrate p-nitrophenylglycoside was measured spectrophotometrically in the presence and absence of test compound. Each assay included a known inhibitor of the enzyme as a standard. IC50 values were determined for compounds which inhibited the enzymes more than 50% at a 1 millimolar concentration.
To 100 μl 50 mM sodium citrate buffer, pH 4.8, in a microtiter plate, add 15 μl test compound in DMSO (DMSO alone in control), 20 μl (0.017 units) beta-glucosidase (Sigma) in citrate buffer and pre-incubate at room temperature for 15 minutes. Add 25 μl 2.50 mM p-nitrophenyl-beta-D-glucopyranoside in citrate buffer, as substrate. Incubate at room temperature 20 minutes (reaction is linear for at least 30 minutes). Add 50 μl 0.4 M NaOH. Read absorption change at 405 nm in a Biotek EIA Autoreader. Each sample was tested in triplicate. IC50 values were determined from the linear portion of the log concentration vs % inhibition curve obtained from a minimum of 3 points. Castanospermine was used as standard inhibitor.

α-Glucosidase (yeast) = target: T1, α-Glucosidase (yeast) (Saccharomyces cerevisiae, UniProt P53341); assay: Alpha-glucosidase (yeast) inhibition assay, pH 7.4; type: biochemical
T1 construct: purchased Sigma
Description: as §1, §2
(§3) To 100 μl 50 mM HEPES buffer, pH 7.4, in a microtiter plate, add 20 μl test compound in DMSO (DMSO alone in control), 40 μl (0.013 units) yeast alpha-glucosidase (Sigma) in HEPES buffer and pre-incubate at room temperature for 15 minutes. Add 40 μl 1.25 mM p-nitrophenyl-alpha-D-glucopyranoside (Sigma) in HEPES buffer, as substrate, and monitor absorbance change at 405 nm in a Biotek EIA Autoreader. Absorption change was measured at 15 to 25 minutes (reaction was linear for at least 30 minutes). Each sample was tested in triplicate. IC50 values were determined from the linear portion of the log concentration vs % inhibition curve obtained from a minimum of 3 points. Deoxynojirimycin was used as standard inhibitor.

β-Glucosidase (almond) [2] = assay: Beta-glucosidase (almond) inhibition assay, pH 7.4; type: biochemical
Description: as §1, §2
as §3, with “μl (0.136” for “μl (0.013”, “units) beta-glucosidase” for “units) yeast alpha-glucosidase”, “mM p-nitrophenyl-beta-D-glucopyranoside” for “mM p-nitrophenyl-alpha-D-glucopyranoside (Sigma)”, “as substrate” for “as substrate,”, “(reaction is” for “(reaction was”, “points. Castanospermine” for “points. Deoxynojirimycin”

visna virus = assay: Inhibition of visna virus growth, plaque reduction assay in sheep choroid plexus (SCP) cells (Method A); type: cell-based; details: for inhibition at 10 µM / inhibition at 100 µM / inhibition at 1 µM: Visna-maedi virus
Excerpt: Inhibitory activity against visna virus was shown by a conventional plaque reduction assay. Visna virus, a lentivirus genetically very similar to the AIDS virus, is pathogenic for sheep and goats. See Sonigo et al., Cell 42, 369-382 (1985); Haase, Nature 322, 130-136 (1986). Inhibition of visna virus replication in vitro as a useful model for HIV and its inhibition by test compounds has been described by Frank et al., Antimicrobial Agents and Chemotherapy 31 (9), 1369-1374 (1987).
Various illustrative compounds synthesized above were tested for inhibition of visna virus in vitro in a plaque reduction assay (Method A) or for inhibition of HIV-1 in a test which measured reduction of cyto-pathogenic effect in virus-infected syncytium-sensitive Leu-3a-positive CEM cells grown in tissue culture (Method B) as follows:
Sheep choroid plexus (SCP) cells were obtained from American Type Culture Collection (ATCC) catalogue number CRL 1700 and were routinely passaged in vitro in Dulbecco's Modified Eagles (DME) medium supplemented with 20% fetal bovine serum (FBS). SCP cells were passaged once per week at a 1:2 or 1:3 split ratio. Visna was titrated by plaque assay in six-well plates. Virus pools were stored at -70° C.
SCP cells were cultured in 6-well plates to confluence. Wells were washed two times with serum free Minimal Essential Medium (MEM) to remove FBS. 0.2 ml of virus was added per well in MEM supplemented with 4 mM glutamine and gentamycin. After 1 hour adsorption, the virus was aspirated from each well. The appropriate concentration of each compound in 5 ml of Medium 199 (M-199) supplemented with 2% lamb serum, 4 mM glutamine, 0.5% agarose and gentamycin was added to each well. Cultures were incubated at 37° C. in a humidified 5% CO2 incubator for 3-4 weeks. To terminate the test, cultures were fixed in 10% formalin, the agar removed, the monolayers stained with 1% crystal violet and plaques counted. Each compound concentration was run in triplicate. […] 0 is no toxicity observed while 4 is total lysing of the cell monolayer. […]
Control wells without virus were completed to determine the toxicity of compounds.

[3] = 100 μM, pH 7.4, read-out: Percent inhibition of α-glucosidase (yeast)
[4] = 1000 μM, pH 7.4, read-out: Percent inhibition of α-glucosidase (yeast)
[5] = pH 7.4, read-out: Percent inhibition of α-glucosidase (yeast)

T1 sequence (P53341 whole entry): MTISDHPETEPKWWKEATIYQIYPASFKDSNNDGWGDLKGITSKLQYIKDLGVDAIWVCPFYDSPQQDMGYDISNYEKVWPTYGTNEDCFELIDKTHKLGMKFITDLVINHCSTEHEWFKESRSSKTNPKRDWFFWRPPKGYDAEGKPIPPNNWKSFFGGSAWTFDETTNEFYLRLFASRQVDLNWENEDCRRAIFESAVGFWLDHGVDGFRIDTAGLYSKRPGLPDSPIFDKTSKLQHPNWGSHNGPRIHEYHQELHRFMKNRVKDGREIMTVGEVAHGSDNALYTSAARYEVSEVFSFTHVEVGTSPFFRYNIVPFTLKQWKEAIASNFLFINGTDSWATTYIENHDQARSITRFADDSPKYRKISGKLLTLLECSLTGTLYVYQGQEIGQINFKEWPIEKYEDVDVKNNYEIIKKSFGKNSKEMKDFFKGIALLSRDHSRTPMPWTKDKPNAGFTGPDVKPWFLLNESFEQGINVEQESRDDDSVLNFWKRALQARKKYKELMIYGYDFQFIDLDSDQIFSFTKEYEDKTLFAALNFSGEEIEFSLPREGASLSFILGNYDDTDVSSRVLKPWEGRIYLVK

SMILES | Percent inhibition of β-glucosidase (almond) (β-Glucosidase (almond) [1]; 100 μM) [%] | Percent inhibition of β-glucosidase (almond) (β-Glucosidase (almond) [1]; 1000 μM) [%] | inhibition at 100 µM (α-Glucosidase (yeast); [3]) [%] | inhibition at 1000 µM (α-Glucosidase (yeast); [4]) [%] | Percent inhibition of β-glucosidase (almond) (β-Glucosidase (almond) [2]; 100 μM) [%] | Percent inhibition of β-glucosidase (almond) (β-Glucosidase (almond) [2]; 1000 μM) [%] | inhibition at 10 µM (visna virus; 0.01 mM) [%] | inhibition at 100 µM (visna virus; 0.1 mM) [%] | also measured
CCCCN1C[C@H](Sc2nnnn2C)[C@@H](O)[C@H](O)[C@H]1CO [56(a), 1,5-(Butylimino)-1,5-dideoxy-2-S-(1-methyl-1H-tetrazol-5-yl) 2-thio-D-glucitol] | -0.9 | 13.7 | 18.1 | -8.2 | -3.4 | -15.8 | – | – | –
CCCCN1C[C@H](OC(=O)Nc2ccccc2)[C@@H](O)[C@H](O)[C@H]1CO [Example 35] | – | – | – | – | – | – | 31 | 41 | –
CCCCN1[C@H](CO)[C@@H](O)[C@H](O)[C@H]1CSc1nnnn1C [56(b), 2,5-(Butylimino)-2,5-dideoxy-1S-(1-methyl-1H-tetrazol-5-yl) 1-thio-D-mannitol] | 7.5 | 29.4 | 15.6 | 15.7 | -6 | 5.7 | – | – | –
CCCCN1C[C@H](Cl)[C@@H](OC(=O)CCC)[C@H](OC(=O)CCC)[C@H]1COC(=O)CCC [Example 40, 1,5-(Butylimino)-2-chloro-1,2,5-trideoxy-D-glucitrol, tributyrate] | – | – | – | – | – | – | 24 | 77 | inhibition at 1 µM (visna virus; 0.001 mM): 0%
CCCCCCCCCN1C[C@H](Cl)[C@@H](O)[C@H](O)[C@H]1CO [Example 29, 2-Chloro-1,2,5-trideoxy-1,5-(nonylimino)-D-glucitol] | 33.1 | 52.8 | – | – | 54.7 | 91.9 | – | – | % inhibition of visna virus growth (visna virus; 0.001 mM): 23%; % inhibition of visna virus growth (visna virus; 0.01 mM): 53%; % inhibition of visna virus growth (visna virus; 0.1 mM): 100%; inhibition at 1 µM (α-Glucosidase (yeast); [5]): 11.5%; inhibition at 10 µM (α-Glucosidase (yeast); [5]): 61.5%; inhibition at 100 µM (α-Glucosidase (yeast); [5]): 91.8%; inhibition at 1000 µM (α-Glucosidase (yeast); [5]): 102%
OC[C@@H]1[C@@H](O)[C@H](O)[C@@H](Cl)CN1Cc1ccccc1 [Example 32, 2-Chloro-1,2,5-trideoxy-1,5-(phenylmethyl)imino-D-glucitol] | – | – | – | – | – | – | -3 | 28 | inhibition at 1 µM (visna virus; 0.001 mM): 12%
CCCCN1C[C@H](C#N)[C@@H](O)[C@H](O)[C@H]1CO [Example 53, 1,5-(Butylimino)-2-cyano-1,2,5-trideoxy-D-glucitol] | 1.6 | 9.5 | 20.1 | -29.4 | -4.2 | -7.3 | – | – | –
CCCCN1[C@H](CN)[C@@H](O)[C@H](O)[C@H]1CO [Example 48, 1-Amino-2,5-(butylimino)-1,2,5-trideoxy-D-mannitol] | 9.5 | 27.9 | 24.6 | 60.9 | 6.9 | 43.1 | – | – | –
